Reference: patent publication US10695482B2, “Cartridge and method for increasing myocardial function” (SeaStar Medical, Inc., priority 2011, dated 2020)

Assays:
[1] = system: leukocytes in human whole blood; assay: In vitro whole blood leukocyte activation assay; type: cell-based; conditions: for CD11b: n = 3; for IL-10: n = 4; for IL-8: n = 5; for IL-6: n = 7
Description: Heparinized human whole blood was added to tubes with or without lipopolysaccharide (LPS) (10 μg/mL) or formyl-Methionyl-Leucyl-Phenylalanine (fMLF, 50 nM). […] The release of IL-6, IL-8, or IL-10 was measured using commercially available ELISA kits from R&D Systems. The release of elastase was measured using a commercially available ELISA kit from Bender MedSystems. The release of lactoferrin was measured using a commercially available ELISA kit from EMD Chemicals. […] Samples were incubated for various times at 37° C. and 5% CO2. CD11b activation was measured using an FITC-conjugated mouse anti-human antibody (AbD Serotech) and evaluated on an Accuri C6 flow cytometer.

[2] = system: leukocytes in porcine blood; assay: Microscopic flow chamber: leukocyte interaction with polysulfone membrane; type: cell-based, pig
Text: A custom microscopic flow chamber system was set up to enable microscopic analysis of leukocyte interaction with the SCD membrane. The flow chamber consisted of a polycarbonate housing with an inlet and outlet for perfusion. A polysulfone membrane was affixed to the polycarbonate block with a gasket which directed shear flow. The thickness of the gasket (100 μm) along with the length (2 cm) and the width of the channel (1.5 mm) determined the volume of the flow chamber. Microscopic imaging was accomplished through an optical window made up of a cover glass affixed to the bottom of the polycarbonate block. Either isolated blood or purified leukocytes were used for this study.
Isolated blood was prone to activation from excessive handling. Thus, 5 mL of fresh heparinized porcine blood was minimally manipulated prior to the flow chamber study. Briefly, leukocytes were fluorescently labeled using 50 μg/mL of Hoechst 33342 dye. Further, the leukocytes were activated by adding 1 μg/ml lipopolysaccharide (LPS) directly to the blood samples. […] Blood passed through the flow chamber at a rate of 20 μL/min with calculated shear forces between 1-10 dynes/cm^2. For each isolated blood sample, sequences were acquired in triplicate.
Microscopic analysis of cell capture events was accomplished using either a Zeiss Axiovert 200M or Axio-Observer epifluorescence microscope equipped with a microscope stage-top incubator to control environmental temperature and CO2 content. Fluorescence images were acquired with either a Zeiss MRm3 or an Icc1 camera at a frequency of 1 frame/second for 5 minutes, for analysis of leukocyte/membrane interaction, and at 1 frame/minute for 1 hour sequences, for analysis of long term leukocyte attachment. Frame by frame evaluation of leukocyte rolling, attachment and detachment of leukocytes was carried out to determine the total number and duration of these phenomena. An attachment event was defined as when a leukocyte appeared in the same location for multiple frames within a sequence. […]

Row | Compound | CD11b ([1]; Baseline) | IL-10 ([1]; Baseline) | IL-8 ([1]; Baseline) | IL-6 ([1]; Baseline) | CD11b ([1]; Stimulated (LPS, fMLF)) | IL-10 ([1]; Stimulated (LPS, fMLF)) | IL-8 ([1]; Stimulated (LPS, fMLF)) | IL-6 ([1]; Stimulated (LPS, fMLF)) | persistent leukocyte adhesion events ([2]; 1 hour sequences, LPS and citrate versus LPS only, preliminary analysis) | rolling events ([2]; LPS and citrate treated blood) | leukocyte attachment to polysulfone membranes during shear flow ([2]; LPS-activated blood, low ionized calcium, FIG. 17)
1 | Heparin | 22.55 ± 1.06 MFI × 10^3 | 0.11 ± 0.07 ng/mL | 0.0 ± 0^ ng/mL | 0.18 ± 0.04 ng/mL | 53.43 ± 3.12 MFI × 10^3 | 3.74 ± 0.94 ng/mL | 34.18 ± 6.66 ng/mL | 65.42 ± 19.77 ng/mL | – | – | –
2 | O=C(O)CC(O)(CC(=O)O)C(=O)O [Citrate] | – | – | – | – | – | – | – | – | far fewer persistent leukocyte adhesion events | increase in rolling events | statistically significant decrease in leukocyte attachment
